How the values were obtained:
[1] = for speed of sound / mass density / viscosity: 101.33 kPa, Liquid; for speed of sound: VIBRATING TUBE DENSIMETER; for mass density: Vibrating tube method; for surface tension liquid-gas: Ring tensiometer; for viscosity: Capillary tube (Ostwald / Ubbelohde) method
[2] = refractive index (Na D-line) (dimensionless); settings: 101.33 kPa, Liquid, Standard Abbe refractometry

CCCCn1cc[n+](C)c1.F[P-](F)(F)(F)(F)F [1-butyl-3-methylimidazolium hexafluorophosphate]
Settings | mass density, [1] [kg/m3] | refractive index, [2] | speed of sound, [1] [m/s] | surface tension liquid-gas, [1] [mN/m] | viscosity, [1] [mPa·s]
278.15 K | 1384.36 | – | 1492.5 | – | –
283.15 K | 1380.1 | 1.41332 | 1480.8 | – | –
288.15 K | 1375.83 | 1.41198 | 1468.2 | 43.7 | –
293.15 K | 1371.56 | 1.41069 | 1455.3 | 43.2 | 340.49
298.15 K | 1367.3 | 1.40937 | 1442.8 | 42.9 | 247.06
303.15 K | 1363.03 | 1.40808 | 1430.6 | 42.6 | 184.23
308.15 K | 1358.76 | 1.40674 | 1419 | 42.2 | 140.57
313.15 K | 1354.53 | 1.40543 | 1406.4 | 41.8 | 108.9
318.15 K | 1350.32 | 1.40411 | 1394.9 | – | 85.9
323.15 K | 1346.12 | 1.40282 | 1383.5 | – | 68.79
328.15 K | 1341.97 | 1.40151 | 1372.2 | – | –
333.15 K | 1337.83 | 1.40024 | 1360.9 | – | –
338.15 K | 1333.7 | 1.39896 | 1349.2 | – | –
343.15 K | 1329.61 | 1.39771 | 1337.2 | – | –

CCCCCCn1cc[n+](C)c1.F[P-](F)(F)(F)(F)F [1-hexyl-3-methylimidazolium hexafluorophosphate]
[1]
Settings | speed of sound [m/s] | surface tension liquid-gas [mN/m] | viscosity [mPa·s]
278.15 K | 1490.7 | – | –
283.15 K | 1470.8 | – | –
288.15 K | 1453.6 | – | –
293.15 K | 1438.3 | 37.5 | 676.82
298.15 K | 1424.2 | 37.1 | 475.66
303.15 K | 1411 | 36.8 | 342.52
308.15 K | 1398.5 | 36.5 | 252.69
313.15 K | 1386.4 | 36.1 | 187.36
318.15 K | 1374.6 | – | 143.58
323.15 K | 1363 | – | 111.9
328.15 K | 1351.7 | – | –
333.15 K | 1340.3 | – | –
338.15 K | 1329.3 | – | –
343.15 K | 1318.4 | – | –

CCCCCCCC[n+]1ccn(C)c1.F[P-](F)(F)(F)(F)F [1-octyl-3-methylimidazolium hexafluorophosphate]
Settings | mass density, [1] [kg/m3] | refractive index, [2] | speed of sound, [1] [m/s] | surface tension liquid-gas, [1] [mN/m] | viscosity, [1] [mPa·s]
278.15 K | 1251.83 | – | 1481.6 | – | –
283.15 K | 1247.65 | 1.42716 | 1460 | – | –
288.15 K | 1243.43 | 1.42578 | 1440.8 | – | –
293.15 K | 1239.57 | 1.4244 | 1423.7 | 36.5 | 999.08
298.15 K | 1235.72 | 1.42302 | 1407.8 | 36.2 | 690.6
303.15 K | 1231.88 | 1.42165 | 1393 | 35.9 | 489.02
308.15 K | 1228.04 | 1.42028 | 1378.9 | 35.6 | 355.31
313.15 K | 1224.21 | 1.41887 | 1365.8 | 35.2 | 263.23
318.15 K | 1220.37 | 1.41749 | 1353.2 | – | 196.23
323.15 K | 1216.62 | 1.4161 | 1341 | – | 150.57
328.15 K | 1212.92 | 1.41471 | 1329.1 | – | –
333.15 K | 1209.21 | 1.41334 | 1317.5 | – | –
338.15 K | 1205.51 | 1.41195 | 1305.8 | – | –
343.15 K | 1201.82 | 1.41056 | 1294.6 | – | –

— the NIST ThermoML archive (doi:10.1016/j.jct.2006.12.005)
